Patent US12447153B2, “HER2 mutation inhibitors” (Array BioPharma Inc., priority 2021, dated 2025)

Tests used:
ErbB2 WT = ErbB2 WT (Homo sapiens (Human), UniProt P04626); assay: ErbB Enzyme Assay (HTRF KinEASE-TK), Assay 2; assay type: biochemical; conditions: ErbB2 WT enzyme
EGFR = EGFR (Homo sapiens (Human), UniProt P00533); assay: ErbB Enzyme Assay (HTRF KinEASE-TK), Assay 3; assay type: biochemical; conditions: EGFR enzyme
[1] = molecular target: ErbB2 with Exon 20 YVMA insertion (HER2-YVMA) (Homo sapiens (Human), UniProt P04626, INS775YVMA); assay: Cellular Phosphorylation Assay, Assay 4 (constitutive ErbB2 phosphorylation, NIH 3T3 cells); assay type: cell-based; conditions: ErbB2 YVMA phosphorylation
EGFR wild type (EGFR WT) = EGFR wild type (EGFR WT) (Homo sapiens (Human), UniProt P00533); assay: Cellular Phosphorylation Assay, Assay 5 (EGF-stimulated EGFR phosphorylation, NIH 3T3 cells); assay type: cell-based; conditions: EGF-stimulated EGFR WT phosphorylation
BCRP = BCRP (Homo sapiens (Human), UniProt Q9UNQ0); assay: BCRP MDCKII efflux assay (Assay 7); assay type: in vitro ADME; conditions: dog; efflux ratio Papp(B-A)/Papp(A-B), BCRP MDCKII cells; read-out: Assay 7 Pe Ratio
Description: Assay conditions included with and without the BCRP-specific inhibitor, KO143, at a concentration of 0.3 μM to ascertain the contribution of BCRP to the efflux value of the test compound.
Final organic concentration in the assay was 1%.

MDR1 (P-gp) = MDR1 (P-gp) (Homo sapiens (Human), UniProt P08183); assay: in vitro; conditions: pig, LLC-PK1
Chain of MDR1 (P-gp) (P08183 whole entry): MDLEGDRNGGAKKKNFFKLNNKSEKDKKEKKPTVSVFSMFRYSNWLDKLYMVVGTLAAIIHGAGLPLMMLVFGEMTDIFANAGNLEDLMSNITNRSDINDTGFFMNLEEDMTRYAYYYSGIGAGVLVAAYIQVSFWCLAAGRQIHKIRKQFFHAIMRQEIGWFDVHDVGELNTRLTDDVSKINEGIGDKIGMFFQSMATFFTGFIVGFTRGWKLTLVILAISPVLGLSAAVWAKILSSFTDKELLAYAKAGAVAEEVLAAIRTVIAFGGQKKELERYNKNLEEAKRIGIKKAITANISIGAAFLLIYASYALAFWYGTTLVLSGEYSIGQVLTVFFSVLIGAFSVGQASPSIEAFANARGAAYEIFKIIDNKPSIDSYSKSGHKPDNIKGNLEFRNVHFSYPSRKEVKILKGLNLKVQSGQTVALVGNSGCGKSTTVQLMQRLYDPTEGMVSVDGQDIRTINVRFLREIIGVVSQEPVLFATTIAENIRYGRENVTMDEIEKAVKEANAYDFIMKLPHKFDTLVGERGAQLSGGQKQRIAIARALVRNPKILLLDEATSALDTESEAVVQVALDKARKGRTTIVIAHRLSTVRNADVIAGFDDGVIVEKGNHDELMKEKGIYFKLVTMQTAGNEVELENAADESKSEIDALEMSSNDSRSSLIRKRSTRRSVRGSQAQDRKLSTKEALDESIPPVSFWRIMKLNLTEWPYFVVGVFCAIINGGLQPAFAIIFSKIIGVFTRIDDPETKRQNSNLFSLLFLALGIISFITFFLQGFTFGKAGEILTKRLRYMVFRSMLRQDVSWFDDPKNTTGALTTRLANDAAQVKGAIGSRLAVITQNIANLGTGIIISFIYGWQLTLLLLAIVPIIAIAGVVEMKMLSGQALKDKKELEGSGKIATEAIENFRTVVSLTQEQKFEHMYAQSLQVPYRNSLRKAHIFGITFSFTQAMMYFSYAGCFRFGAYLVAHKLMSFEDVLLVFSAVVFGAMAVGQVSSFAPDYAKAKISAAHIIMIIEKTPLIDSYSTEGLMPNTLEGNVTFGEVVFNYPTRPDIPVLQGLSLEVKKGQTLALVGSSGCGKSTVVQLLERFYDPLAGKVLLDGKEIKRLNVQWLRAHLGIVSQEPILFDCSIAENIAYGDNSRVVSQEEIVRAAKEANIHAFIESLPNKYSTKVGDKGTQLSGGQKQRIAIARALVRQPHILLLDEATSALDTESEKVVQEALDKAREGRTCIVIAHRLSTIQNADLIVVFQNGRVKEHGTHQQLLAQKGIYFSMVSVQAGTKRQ

Chain of ErbB2 with Exon 20 YVMA insertion (HER2-YVMA) (P04626 other isoform, or with tags, fused parts or gaps ins YVMA behind 775): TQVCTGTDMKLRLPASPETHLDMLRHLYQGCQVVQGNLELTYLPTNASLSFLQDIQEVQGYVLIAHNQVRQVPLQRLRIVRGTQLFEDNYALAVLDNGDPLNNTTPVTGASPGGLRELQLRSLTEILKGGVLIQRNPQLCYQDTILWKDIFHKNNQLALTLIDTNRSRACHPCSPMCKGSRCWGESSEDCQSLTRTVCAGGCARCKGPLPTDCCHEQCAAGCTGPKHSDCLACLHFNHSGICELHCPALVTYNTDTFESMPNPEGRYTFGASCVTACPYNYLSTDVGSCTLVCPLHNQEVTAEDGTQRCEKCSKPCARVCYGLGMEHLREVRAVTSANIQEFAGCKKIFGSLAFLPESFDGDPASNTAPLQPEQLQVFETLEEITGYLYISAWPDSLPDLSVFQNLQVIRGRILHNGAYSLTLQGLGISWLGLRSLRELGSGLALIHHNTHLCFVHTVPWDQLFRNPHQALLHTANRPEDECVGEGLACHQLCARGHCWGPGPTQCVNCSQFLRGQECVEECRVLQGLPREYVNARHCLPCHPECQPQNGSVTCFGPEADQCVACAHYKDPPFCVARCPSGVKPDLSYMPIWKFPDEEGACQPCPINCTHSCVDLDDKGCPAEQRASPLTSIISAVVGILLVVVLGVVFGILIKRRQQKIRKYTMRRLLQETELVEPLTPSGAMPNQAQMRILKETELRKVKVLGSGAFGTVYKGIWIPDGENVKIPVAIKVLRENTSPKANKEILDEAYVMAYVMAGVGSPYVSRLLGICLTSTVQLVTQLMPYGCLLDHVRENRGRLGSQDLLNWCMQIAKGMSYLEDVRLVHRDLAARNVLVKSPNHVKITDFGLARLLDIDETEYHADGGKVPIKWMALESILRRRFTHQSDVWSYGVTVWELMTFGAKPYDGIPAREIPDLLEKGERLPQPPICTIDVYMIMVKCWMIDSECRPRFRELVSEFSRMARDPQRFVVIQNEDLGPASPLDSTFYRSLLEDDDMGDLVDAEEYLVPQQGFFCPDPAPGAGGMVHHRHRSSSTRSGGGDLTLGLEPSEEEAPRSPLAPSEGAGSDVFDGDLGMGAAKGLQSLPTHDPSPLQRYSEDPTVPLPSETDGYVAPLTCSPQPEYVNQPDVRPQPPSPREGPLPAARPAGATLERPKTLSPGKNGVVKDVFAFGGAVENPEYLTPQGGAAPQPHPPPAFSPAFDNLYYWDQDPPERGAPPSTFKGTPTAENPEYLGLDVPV
Chain of BCRP (Q9UNQ0 whole entry): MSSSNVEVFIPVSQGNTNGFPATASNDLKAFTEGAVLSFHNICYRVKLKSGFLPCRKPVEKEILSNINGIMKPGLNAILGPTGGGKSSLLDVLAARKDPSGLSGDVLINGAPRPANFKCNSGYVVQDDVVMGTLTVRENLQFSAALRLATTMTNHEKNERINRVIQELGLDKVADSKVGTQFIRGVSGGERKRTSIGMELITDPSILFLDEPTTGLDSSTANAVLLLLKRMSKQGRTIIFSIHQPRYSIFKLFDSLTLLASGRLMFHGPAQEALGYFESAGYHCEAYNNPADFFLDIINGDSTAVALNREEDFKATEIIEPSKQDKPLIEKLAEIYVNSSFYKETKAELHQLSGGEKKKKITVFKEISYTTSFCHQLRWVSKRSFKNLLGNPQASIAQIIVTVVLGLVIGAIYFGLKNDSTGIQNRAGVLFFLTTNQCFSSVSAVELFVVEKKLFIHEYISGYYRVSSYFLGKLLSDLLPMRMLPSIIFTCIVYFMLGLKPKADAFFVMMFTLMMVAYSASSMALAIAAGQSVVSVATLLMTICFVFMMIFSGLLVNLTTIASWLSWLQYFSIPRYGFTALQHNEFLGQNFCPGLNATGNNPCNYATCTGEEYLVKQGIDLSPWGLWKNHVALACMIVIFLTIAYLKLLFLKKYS
Chain of EGFR (P00533 25-1210): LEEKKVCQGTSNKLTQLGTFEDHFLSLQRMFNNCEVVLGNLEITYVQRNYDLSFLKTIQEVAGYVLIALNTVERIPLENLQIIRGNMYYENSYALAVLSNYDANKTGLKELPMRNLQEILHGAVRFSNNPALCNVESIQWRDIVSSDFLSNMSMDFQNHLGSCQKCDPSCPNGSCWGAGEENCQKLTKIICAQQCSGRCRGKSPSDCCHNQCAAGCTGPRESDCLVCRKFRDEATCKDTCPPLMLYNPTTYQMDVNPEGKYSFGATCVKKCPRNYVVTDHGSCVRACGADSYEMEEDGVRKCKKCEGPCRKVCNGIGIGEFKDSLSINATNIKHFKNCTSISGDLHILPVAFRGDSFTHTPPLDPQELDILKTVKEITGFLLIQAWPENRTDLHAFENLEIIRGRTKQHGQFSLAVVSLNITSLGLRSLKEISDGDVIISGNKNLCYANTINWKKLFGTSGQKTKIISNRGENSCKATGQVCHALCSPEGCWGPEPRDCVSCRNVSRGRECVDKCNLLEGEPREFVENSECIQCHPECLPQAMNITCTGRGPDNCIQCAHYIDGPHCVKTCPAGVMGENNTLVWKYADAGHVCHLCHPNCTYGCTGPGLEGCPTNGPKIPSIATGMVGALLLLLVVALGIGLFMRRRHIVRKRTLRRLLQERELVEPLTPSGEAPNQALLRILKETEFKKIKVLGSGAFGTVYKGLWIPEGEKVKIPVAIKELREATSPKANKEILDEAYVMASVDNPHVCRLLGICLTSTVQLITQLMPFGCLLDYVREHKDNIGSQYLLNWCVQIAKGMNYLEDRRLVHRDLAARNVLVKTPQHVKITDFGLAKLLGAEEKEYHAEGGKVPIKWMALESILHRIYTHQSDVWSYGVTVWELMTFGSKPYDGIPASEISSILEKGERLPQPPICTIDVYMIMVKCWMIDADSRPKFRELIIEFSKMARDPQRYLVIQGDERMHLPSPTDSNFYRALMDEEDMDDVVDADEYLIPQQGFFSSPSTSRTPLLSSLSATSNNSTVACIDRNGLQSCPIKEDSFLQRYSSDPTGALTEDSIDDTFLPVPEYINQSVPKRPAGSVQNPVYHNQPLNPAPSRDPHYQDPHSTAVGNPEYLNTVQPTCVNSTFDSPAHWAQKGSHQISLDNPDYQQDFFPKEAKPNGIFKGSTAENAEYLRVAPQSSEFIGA

IC50 (ErbB2 WT) [nM]	IC50 (EGFR) [nM]	IC50 [1] [nM]	IC50 (EGFR wild type (EGFR WT)) [nM]	efflux ratio at 2 h, 1 µM (BCRP)	efflux ratio at 2 h, 1 µM (MDR1 (P-gp))	SMILES
16.7	835	6.8	538	6.1	1.8	C=CC(=O)N1CCN(c2ccc3ncnc(Nc4ccc(Oc5ccn6ncnc6c5)c(C)c4F)c3n2)CC1 [Example 96, 1-(4-(4-((4-([1,2,4]triazolo[1,5-a]pyridin-7-yloxy)-2-fluoro-3-methylphenyl)amino)pyrido[3,2-d]pyrimidin-6-yl)piperazin-1-yl)prop-2-en-1-one]
39.2	1380	32	≥ 5000	2.5	1.9	C=CC(=O)N1CC2(C1)CN(c1ccc3ncnc(Nc4ccc(Oc5ccn6ncnc6c5)c(Cl)c4F)c3n1)C2 [Example 101, 1-(6-(4-((4-([1,2,4]triazolo[1,5-a]pyridin-7-yloxy)-3-chloro-2-fluorophenyl)amino)pyrido[3,2-d]pyrimidin-6-yl)-2,6-diazaspiro[3.3]heptan-2-yl)prop-2-en-1-one]
237	≥ 10000	17.8	≥ 5000	2.7	1.6	C=CC(=O)N1C[C@H]2C[C@@H]1CN(c1ccc3ncnc(Nc4cc(Cl)c(Oc5ccc6c(c5)ncn6C)cc4F)c3n1)C2 [Example 107, 1-((1S,5R)-3-(4-((5-chloro-2-fluoro-4-((1-methyl-1H-benzo[d]imidazol-5-yl)oxy)phenyl)amino)pyrido[3,2-d]pyrimidin-6-yl)-3,6-diazabicyclo[3.2.1]octan-6-yl)prop-2-en-1-one]
282	≥ 10000	13.4	≥ 5000	2	2	C=CC(=O)N1C[C@@H]2C[C@H]1CN(c1ccc3ncnc(Nc4ccc(Oc5ccc6c(c5)ncn6C)c(C)c4F)c3n1)C2 [Example 109, 1-((1R,5S)-3-(4-((2-fluoro-3-methyl-4-((1-methyl-1H-benzo[d]imidazol-5-yl)oxy)phenyl)amino)pyrido[3,2-d]pyrimidin-6-yl)-3,6-diazabicyclo[3.2.1]octan-6-yl)prop-2-en-1-one]
57.5	3330	19.8	≥ 5000	5.2	1.4	C=CC(=O)N1[C@H](C)CN(c2ccc3ncnc(Nc4cc(C)c(Oc5ccc6c(c5)ncn6C)cc4F)c3n2)C[C@@H]1C [Example 112, 1-((2S,6R)-4-(4-((2-fluoro-5-methyl-4-((1-methyl-1H-benzo[d]imidazol-5-yl)oxy)phenyl)amino)pyrido[3,2-d]pyrimidin-6-yl)-2,6-dimethylpiperazin-1-yl)prop-2-en-1-one]
54.1	6090	10.1	≥ 5000	4.1	2.2	C=CC(=O)N1C[C@H]2C[C@@H]1CN(c1ccc3ncnc(Nc4ccc(Oc5ccc6c(c5)ncn6C)c(C)c4F)c3n1)C2 [Example 118, 1-((1S,5R)-3-(4-((2-fluoro-3-methyl-4-((1-methyl-1H-benzo[d]imidazol-5-yl)oxy)phenyl)amino)pyrido[3,2-d]pyrimidin-6-yl)-3,6-diazabicyclo[3.2.1]octan-6-yl)prop-2-en-1-one]
30.8	5570	9.1	4580	4	1.9	C=CC(=O)N1CCCC(c2ccc3ncnc(Nc4ccc(Oc5ccc6c(c5)ncn6C)c(C)c4)c3n2)CC1 (stereo not drawn) [Example 121, 1-(4-(4-((3-methyl-4-((1-methyl-1H-benzo[d]imidazol-5-yl)oxy)phenyl)amino)pyrido[3,2-d]pyrimidin-6-yl)azepan-1-yl)prop-2-en-1-one]
29.9	3900	11.4	1940	5.2	1.6	C=CC(=O)N1CC(c2ccc3ncnc(Nc4ccc(Oc5ccc6c(c5)ncn6C)c(C)c4F)c3n2)CC1C (stereo not drawn) [Example 124, 1-(4-(4-((2-fluoro-3-methyl-4-((1-methyl-1H-benzo[d]imidazol-5-yl)oxy)phenyl)amino)pyrido[3,2-d]pyrimidin-6-yl)-2-methylpyrrolidin-1-yl)prop-2-en-1-one]
271	≥ 10000	32.7	≥ 5000	1.6	1.2	C=CC(=O)N1CCC(c2ccc3ncnc(Nc4ccc(Oc5ccc6c(c5)ncn6C)c(C)c4F)c3n2)CC1(C)C (stereo not drawn) [Example 127, 1-(4-(4-((2-fluoro-3-methyl-4-((1-methyl-1H-benzo[d]imidazol-5-yl)oxy)phenyl)amino)pyrido[3,2-d]pyrimidin-6-yl)-2,2-dimethylpiperidin-1-yl)prop-2-en-1-one]
39.9	≥ 10000	28.6	≥ 5000	1.7	1.7	C=CC(=O)N1C[C@H]2C[C@H](c3ccc4ncnc(Nc5cc(C)c(Oc6ccc7c(c6)ncn7C)cc5F)c4n3)C[C@H]2C1 [Example 136, 1-((3aR,5s,6aS)-5-(4-((2-fluoro-5-methyl-4-((1-methyl-1H-benzo[d]imidazol-5-yl)oxy)phenyl)amino)pyrido[3,2-d]pyrimidin-6-yl)hexahydrocyclopenta[c]pyrrol-2(1H)-yl)prop-2-en-1-one]
22.1	4170	25.1	≥ 5000	1.8	6.8	C=CC(=O)N1C[C@H]2C[C@H](c3ccc4ncnc(Nc5ccc(Oc6ccc7c(c6)ncn7C)c(C)c5F)c4n3)C[C@H]2C1 [Example 138, 1-((3aR,5s,6aS)-5-(4-((2-fluoro-3-methyl-4-((1-methyl-1H-benzo[d]imidazol-5-yl)oxy)phenyl)amino)pyrido[3,2-d]pyrimidin-6-yl)hexahydrocyclopenta[c]pyrrol-2(1H)-yl)prop-2-en-1-one]
45.8	≥ 10000	14.7	665	2.5	1.1	C=CC(=O)N1CCN(c2ccc3ncnc(Nc4cc(C)c(Oc5ccn6ncnc6c5)cc4F)c3n2)C[C@H]1CC [Example 164, (R)-1-(4-(4-((4-([1,2,4]triazolo[1,5-a]pyridin-7-yloxy)-2-fluoro-5-methylphenyl)amino)pyrido[3,2-d]pyrimidin-6-yl)-2-ethylpiperazin-1-yl)prop-2-en-1-one]
177	≥ 10000	15.8	≥ 5000	1.6	0.9	C=CC(=O)N1CCN(c2ccc3ncnc(Nc4ccc(Oc5cnc6c(c5)ncn6C)c(C)c4F)c3n2)C[C@H]1C1CC1 [Example 165, (R)-1-(2-cyclopropyl-4-(4-((2-fluoro-3-methyl-4-((3-methyl-3H-imidazo[4,5-b]pyridin-6-yl)oxy)phenyl)amino)pyrido[3,2-d]pyrimidin-6-yl)piperazin-1-yl)prop-2-en-1-one]
519	≥ 10000	25.1	≥ 5000	1.7	0.9	C=CC(=O)N1CCN(c2ccc3ncnc(Nc4ccc(Oc5cnc6c(c5)ncn6C)c(C)c4F)c3n2)C[C@@H]1C1CC1 [Example 167, (S)-1-(2-cyclopropyl-4-(4-((2-fluoro-3-methyl-4-((3-methyl-3H-imidazo[4,5-b]pyridin-6-yl)oxy)phenyl)amino)pyrido[3,2-d]pyrimidin-6-yl)piperazin-1-yl)prop-2-en-1-one]
111	1810	23.6	≥ 5000	2.1	1	C=CC(=O)N1C[C@H](c2ccc3ncnc(Nc4ccc(Oc5ccc6c(c5)ncn6C)c(C)c4F)c3n2)CC[C@H]1C [Example 169, 1-((2R,5R)-5-(4-((2-fluoro-3-methyl-4-((1-methyl-1H-benzo[d]imidazol-5-yl)oxy)phenyl)amino)pyrido[3,2-d]pyrimidin-6-yl)-2-methylpiperidin-1-yl)prop-2-en-1-one]
172	5350	22.2	2410	4.8	3.3	C=CC(=O)N1C[C@H]2CC[C@@H]1CN2c1ccc2ncnc(Nc3ccc(Oc4ccn5ncnc5c4)c(C)c3F)c2n1 [Example 175, 1-((1R,4R)-5-(4-((4-([1,2,4]triazolo[1,5-a]pyridin-7-yloxy)-2-fluoro-3-methylphenyl)amino)pyrido[3,2-d]pyrimidin-6-yl)-2,5-diazabicyclo[2.2.2]octan-2-yl)prop-2-en-1-one]

SMILES	IC50 (ErbB2 WT) [nM]	IC50 (EGFR) [nM]	IC50 [1] [nM]	IC50 (EGFR wild type (EGFR WT)) [nM]	efflux ratio at 2 h, 1 µM (BCRP)	efflux ratio at 2 h, 1 µM (MDR1 (P-gp))
C=CC(=O)N1CCC(c2ccc3ncnc(Nc4ccc(Oc5ccc6c(c5)ncn6C)c(C)c4F)c3n2)CC12CC2 (stereo not drawn) [Example 128, 1-(7-(4-((2-fluoro-3-methyl-4-((1-methyl-1H-benzo[d]imidazol-5-yl)oxy)phenyl)amino)pyrido[3,2-d]pyrimidin-6-yl)-4-azaspiro[2.5]octan-4-yl)prop-2-en-1-one]	44.4	≥ 10000	27.7	2620	2.7	0.6
